Source: patent US8809369B2, “Tetrahydroquinoline derivatives” (Hoffmann-La Roche Inc., priority 2011, dated 2014)

test system: ACC (acetyl-CoA carboxylase); test: p-ACC expression level in L6 cell line by Western blot; type: cell-based; details: Rattus norvegicus, L6 cells, 2 hours compound treatment, read-out: Activity AC1.3 (ACCp)
Method: (§1) Evaluation of p-AMPK and p-ACC expression level in L6 cell line by Western-Blot
(§2) This method evaluates the changes of AMP-activated protein kinase (AMPK) and ACC (acetyl-CoA carboxylase) activity by small molecular modulators through detecting the level of p-AMPK and p-ACC proteins in L6 cells using Western blot.
(§3) L6 cells are maintained in DMEM medium supplemented with 10% FBS in 10-cm dishes. Prior to compounds treatment, L6 cells are seeded in 12-well-plates at concentration of 3×10^4 cells per well. After 24 hours of incubation in 12-well plates, L6 cells are differentiated by replacing the 10% FBS-DMEM medium with 2% FBS-DMEM. Differentiation usually takes 5 days, during which the culture medium is changed every 2 days.
(§4) The compound concentrations typically range from 32 μM to 0.5 μM with 2-fold dilution in 2 ml DMEM and 7 doses. The final DMSO concentration is 0.4%. Berberine is used as a positive control at concentration of 16 μM. Before compound treatment, starve L6 cells for 2 hours by replacing the medium with DMEM, and then gently aspirate the media from each well. Add the compounds into the plates and incubate at 37 degree 5% CO2 for 2 hours.
(§5) Prepare lysis buffer (RIPA buffer with protease-inhibitors and phosphorate-inhibitors) and place it on ice. After two hour's compound treatment, aspirate the medium from 12-well plates, add 70 ul lysis buffer to each well and keep the plates on ice for 5 min. Then scrape the cell lysate off the plates and transfer it to 1.5 ml eppendorf tubes. Keep the tube on ice for more 10 min, centrifugate the lysate at 13000 rpm, 4 degrees for 15 min and transfer the supernatant to clean tubes.
(§6) Determine protein concentration for each sample using Quickstart Bradford protein quantitation kit. Mix 20 ug protein sample with 4 times loading buffer, heat them at 100° C. for 5 min, store the sample in −80° C. or perform Western blot assay directly. For Western blot assay, load 20 ug samples and 10 ul Pre-stained Protein Maker into 4-12% SDS-PAGE gradient gel. Run the samples at 100 V in the stacking gel and at 120 V in resolving gel until the Bromophenol dye reaches the bottom. Transfer the electrophoresed proteins to a PVDF membrane using Bio-Rad's Transblot for 120 min at 300 mA. Following the completion of transfer, the membrane is blocked with 5% non-fat milk for 2 hours at room temperature before incubated with primary antibody (p-AMPK and p-ACC) at 4° C. overnight. On the next day wash the membrane twice with TBST, add secondary antibody and incubate for 1 hour at room temperature. Wash the membrane twice with TBST. Develop p-AMPK and p-ACC protein expression level on the film in dark room with Amersham ECL plus kit. The bands of each sample are quantitated by Bio-Rad system, The AC1.3 value is analyzed using Prism 5.0.

| Structure (SMILES) | EC (1.3-fold) |
| --- | --- |
| CC1(C)CC(c2cccc(N3CCOCC3)c2)Nc2ccc(C(=O)NS(=O)(=O)C3CC3)cc21 (centres unmarked) [Example 1, Cyclopropanesulfonic acid [4,4-dimethyl-2-(3-morpholin-4-yl-phenyl)-1,2,3,4-tetrahydro-quinoline-6-carbonyl]-amide] | 1.4 µM |
| CC1(C)CC(c2cc(F)cc(N3CCOCC3)c2)Nc2ccc(C(=O)NS(=O)(=O)C3CC3)cc21 (centres unmarked) [Example 6, Cyclopropanesulfonic acid [2-(3-fluoro-5-morpholin-4-yl-phenyl)-4,4-dimethyl-1,2,3,4-tetrahydro-quinoline-6-carbonyl]-amide] | 3.5 µM |
| CC1(c2ccccc2)CC(c2ccc(F)c(Cl)c2)Nc2ccc(C(=O)NS(C)(=O)=O)cc21 (centres unmarked) [Example 7, N-[2-(3-chloro-4-fluoro-phenyl)-4-methyl-4-phenyl-1,2,3,4-tetrahydro-quinoline-6-carbonyl]-methanesulfonamide] | < 16 µM |
| CCCS(=O)(=O)NC(=O)c1ccc2c(c1)C(C)(C)CC(c1ccc(F)c(Cl)c1)N2 (centres unmarked) [Example 8, Propane-1-sulfonic acid [2-(3-chloro-4-fluoro-phenyl)-4,4-dimethyl-1,2,3,4-tetrahydro-quinoline-6-carbonyl]-amide] | < 32 µM |
| CC(C)S(=O)(=O)NC(=O)c1ccc2c(c1)C(C)(C)CC(c1cccc(N3CCOCC3)c1)N2 (centres unmarked) [Example 9, Propane-2-sulfonic acid [4,4-dimethyl-2-(3-morpholin-4-yl-phenyl)-1,2,3,4-tetrahydro-quinoline-6-carbonyl]-amide] | 4.5 µM |
| CC1(C)CC(c2cccc(N3CCOCC3)c2)Nc2c(C(=O)NS(C)(=O)=O)cccc21 (centres unmarked) [Example 10, N-[4,4-dimethyl-2-(3-morpholin-4-yl-phenyl)-1,2,3,4-tetrahydro-quinoline-8-carbonyl]-methanesulfonamide] | < 0.2 µM |
| CC1(C)CC(c2cccc(N3CCOCC3)c2)Nc2c(C(=O)NS(=O)(=O)C3CC3)cccc21 (centres unmarked) [Example 11, Cyclopropanesulfonic acid [4,4-dimethyl-2-(3-morpholin-4-yl-phenyl)-1,2,3,4-tetrahydro-quinoline-8-carbonyl]-amide] | 0.3 µM |
| CC(C)NS(=O)(=O)c1ccc2c(c1)C(C)(C)CC(c1cccc(N3CCOCC3)c1)N2 (centres unmarked) [Example 13, 4,4-Dimethyl-2-(3-morpholin-4-yl-phenyl)-1,2,3,4-tetrahydro-quinoline-6-sulfonic acid isopropylamide] | 0.4 µM |
| CC1(C)CC(c2cccc(N3CCNCC3)c2)Nc2ccc(S(=O)(=O)N3CCOCC3)cc21 (centres unmarked) [Example 14, 4,4-Dimethyl-6-(morpholine-4-sulfonyl)-2-(3-piperazin-1-yl-phenyl)-1,2,3,4-tetrahydro-quinoline] | 4.7 µM |
| CC1(C)CC(c2cccc(C(F)(F)F)c2)Nc2ccc(C(=O)NS(C)(=O)=O)cc21 (centres unmarked) [Example 30, N-[4,4-dimethyl-2-(3-trifluoromethyl-phenyl)-1,2,3,4-tetrahydro-quinoline-6-carbonyl]-methanesulfonamide] | 0.002 µM |
| CC1(C)CC(c2cccc(C(F)(F)F)c2)Nc2ccc(C(=O)NS(=O)(=O)C3CC3)cc21 (centres unmarked) [Example 31, Cyclopropanesulfonic acid [4,4-dimethyl-2-(3-trifluoromethyl-phenyl)-1,2,3,4-tetrahydro-quinoline-6-carbonyl]-amide] | 2 µM |
| CC(C)(C)c1ccc(-c2cccc(C3CC(C)(C)c4cc(C(=O)NS(C)(=O)=O)ccc4N3)c2)cc1 (centres unmarked) [Example 39, N-[2-(4′-tert-butyl-biphenyl-3-yl)-4,4-dimethyl-1,2,3,4-tetrahydro-quinoline-6-carbonyl]-methanesulfonamide] | 1.4 µM |
| CC1(C)CC(c2cccc(-c3nnnn3C3CC3)c2)Nc2ccc(C(=O)NS(=O)(=O)C3CC3)cc21 (centres unmarked) [Example 41, Cyclopropanesulfonic acid {2-[3-(1-cyclopropyl-1H-tetrazol-5-yl)-phenyl]-4,4-dimethyl-1,2,3,4-tetrahydro-quinoline-6-carbonyl}-amide] | 1.16 µM |
| CC(C)Oc1ccc(-c2cccc(C3CC(C)(C)c4cc(C(=O)NS(C)(=O)=O)ccc4N3)c2)cc1 (centres unmarked) [Example 45, N-[2-(4′-isopropoxy-biphenyl-3-yl)-4,4-dimethyl-1,2,3,4-tetrahydro-quinoline-6-carbonyl]-methanesulfonamide] | < 8 µM |
| CC(C)Oc1ccc(-c2cccc(C3CC(C)(C)c4cc(C(=O)NS(=O)(=O)C5CC5)ccc4N3)c2)cc1 (centres unmarked) [Example 46, Cyclopropanesulfonic acid [2-(4′-isopropoxy-biphenyl-3-yl)-4,4-dimethyl-1,2,3,4-tetrahydro-quinoline-6-carbonyl]-amide] | < 8 µM |
| CCc1ccc(N2CCOCC2)cc1C1CC(C)(C)c2cc(C(=O)NS(=O)(=O)C3CC3)ccc2N1 (centres unmarked) [Example 47, Cyclopropanesulfonic acid [2-(2-ethyl-5-morpholin-4-yl-phenyl)-4,4-dimethyl-1,2,3,4-tetrahydro-quinoline-6-carbonyl]-amide] | 62.4 µM |
| CC1(C)CC(c2cccc(N3CCOCC3)c2)Nc2cc(C(=O)NS(C)(=O)=O)ccc21 (centres unmarked) [Example 55, N-[4,4-dimethyl-2-(3-morpholin-4-yl-phenyl)-1,2,3,4-tetrahydro-quinoline-7-carbonyl]-methanesulfonamide] | 0.7 µM |
| CC1(C)CC(c2cccc(N3CCN(c4ccccc4F)CC3)c2)Nc2c(C(=O)NS(=O)(=O)C3CC3)cc(F)cc21 (centres unmarked) [Example 60, Cyclopropanesulfonic acid (6-fluoro-2-{3-[4-(2-fluoro-phenyl)-piperazin-1-yl]-phenyl}-4,4-dimethyl-1,2,3,4-tetrahydro-quinoline-8-carbonyl)-amide] | 7.33 µM |
| CC1(C)CC(c2cccc(N3CCOCC3)c2)Nc2c(C(=O)NS(C)(=O)=O)cc(Cl)cc21 (centres unmarked) [Example 62, N-[6-chloro-4,4-dimethyl-2-(3-morpholin-4-yl-phenyl)-1,2,3,4-tetrahydro-quinoline-8-carbonyl]-methanesulfonamide] | 68 µM |
| CC1(C)CC(c2cccc(N3CCOCC3)c2)Nc2c(C(=O)NS(=O)(=O)C3CC3)cc(Cl)cc21 (centres unmarked) [Example 63, Cyclopropanesulfonic acid [6-chloro-4,4-dimethyl-2-(3-morpholin-4-yl-phenyl)-1,2,3,4-tetrahydro-quinoline-8-carbonyl]-amide] | 5.2 µM |
| CC1(C)CC(c2cccc(N3CCOC3=O)c2)Nc2c(C(=O)NS(=O)(=O)C3CC3)cc(Cl)cc21 (centres unmarked) [Example 65, Cyclopropanesulfonic acid {6-chloro-4,4-dimethyl-2-[3-(2-oxo-oxazolidin-3-yl)-phenyl]-1,2,3,4-tetrahydro-quinoline-8-carbonyl}-amide] | 12.8 µM |
| CC1(C)CC(c2cccc(N3CCCC3)c2)Nc2c(C(=O)NS(C)(=O)=O)cc(F)cc21 (centres unmarked) [Example 69, N-[6-fluoro-4,4-dimethyl-2-(3-pyrrolidin-1-yl-phenyl)-1,2,3,4-tetrahydro-quinoline-8-carbonyl]-methanesulfonamide] | 0.1 µM |
| CC1(C)CC(c2cccc(N3CCCC3)c2)Nc2c(C(=O)NS(=O)(=O)C3CC3)cc(F)cc21 (centres unmarked) [Example 70, Cyclopropanesulfonic acid [6-fluoro-4,4-dimethyl-2-(3-pyrrolidin-1-yl-phenyl)-1,2,3,4-tetrahydro-quinoline-8-carbonyl]-amide] | 0.57 µM |
| CC(C)(C)c1ccc(-c2cncc(C3CC(C)(C)c4cc(C(=O)NS(C)(=O)=O)ccc4N3)c2)cc1 (centres unmarked) [Example 73, N-{2-[5-(4-tert-butyl-phenyl)-pyridin-3-yl]-4,4-dimethyl-1,2,3,4-tetrahydro-quinoline-6-carbonyl}-methanesulfonamide] | 0.1 µM |

test system: AMP-activated protein kinase (AMPK); test: p-AMPK expression level in L6 cell line by Western blot; type: cell-based; details: L6 cells, 2 hours compound treatment
Method: as §1, §2, §3, §4, §5, §6

| Structure (SMILES) | Activity AC1.3 (AMPKp) |
| --- | --- |
| CC(C)(Nc1cc(F)cc(C2CC(C)(C)c3cc(S(=O)(=O)NC4CCC4)ccc3N2)c1)C(=O)O (centres unmarked) [Example 86, 2-[3-(6-Cyclobutylsulfamoyl-4,4-dimethyl-1,2,3,4-tetrahydro-quinolin-2-yl)-5-fluoro-phenylamino]-2-methyl-propionic acid] | 0.003 µM |
| CC1(C)CC(c2cc(F)cc(NC3(C(=O)O)CC3)c2)Nc2ccc(S(=O)(=O)NC3CCC3)cc21 (centres unmarked) [Example 87, 1-[3-(6-Cyclobutylsulfamoyl-4,4-dimethyl-1,2,3,4-tetrahydro-quinolin-2-yl)-5-fluoro-phenylamino]-cyclopropanecarboxylic acid] | 0.002 µM |
